According to US10760110B2, “Antibiotic testing and screening system” (priority 2017, dated 2020):
≈ marks a conversion by molar mass, not a printed value. Where two headings read alike, the source gives them in different places.

Assays:
Conditions in all cases: Klebsiella pneumoniae
[1] = test system: K. pneumoniae NVT1001 and its ΔompK35/36 and/or ΔramR mutants; assay: Etest MIC, OmpK35/36 loss and AcrAB-TolC overexpression (ΔramR) strains (Table 6); format: cell-based, Klebsiella pneumoniae
Outline: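 MICs were read by Etest strip following the manufacturer's instructions, and values falling between standard two-fold dilutions were rounded up to the next two-fold step. Ceftazidime and cefotaxime were also tested by CLSI broth microdilution and interpreted against CLSI 2017 breakpoints; cephalothin used CLSI 2015 and moxifloxacin EUCAST 2017.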

[2] = test system: K. pneumoniae NVT1001 strains with carbapenemase plasmids; assay: Etest MIC of β-lactams, OmpK35/36 loss, ΔramR and/or carbapenemase (Table 9); format: cell-based, Klebsiella pneumoniae
Description: DNA fragments of the resistance genes along with their flanking regions were amplified from clinical plasmids via PCR with specific primer pairs. The resulting PCR fragments were digested and then cloned into the plasmid pACYC177 or pACYC184. The resulting plasmids were then transformed into K. pneumoniae strain NVT1001 via electroporation. The recombinant bacteria were plated onto LB agar plates containing kanamycin (50 mg/L) or chloramphenicol (50 mg/L), and the presence of the cloned gene was confirmed via PCR and DNA sequencing.
The MICs of antibiotics were determined using the Etest (Biodisk AB, Sweden) according to the manufacturer's instructions. The MICs from the Etest, which fall between standard two-fold dilutions, were rounded up to the next highest two-fold value. The MICs of ceftazidime and cefotaxime against K. pneumoniae NVT1001 harbouring the pACYC177 plasmid with blaOXA-48 were further determined using a broth microdilution test according to the recommendations of the CLSI,^25 and the results were interpreted according to the breakpoints established by the CLSI in 2017.^25 Meanwhile, due to the lack of CLSI breakpoints in 2016 and 2017, the results for cephalothin were interpreted according to the breakpoints established by the CLSI in 2015,^26 and the results for moxifloxacin were interpreted according to the breakpoints established by the EUCAST in 2017.^27

[3] = test system: K. pneumoniae NVT1001 ΔramRΔompK35/36 mutant and its revertants; assay: Etest MIC, ΔramRΔompK35/36 mutant and its revertants (Table 7); format: cell-based

CO/N=C(\C(=O)N[C@@H]1C(=O)N2C(C(=O)O)=C(COC(N)=O)CS[C@H]12)c1ccco1 [Cefuroxime]
MIC ([1]; WT, NVT1001, read-out: MIC): 4 µg/mL (≈ 9.43 µM) | MIC ([1]; Δ35, ΔompK35 mutant): 8 µg/mL (≈ 18.9 µM) | MIC ([1]; Δ35/36, ΔompK35/36 mutant): 32 µg/mL (≈ 75.4 µM) | MIC ([1]; Δ36, ΔompK36 mutant): 16 µg/mL (≈ 37.7 µM) | MIC ([1]; ΔramR mutant): 32 µg/mL (≈ 75.4 µM) | MIC ([1]; ΔramRΔ35, ΔramRΔompK35 mutant): 64 µg/mL (≈ 151 µM) | MIC ([1]; ΔramRΔ35/36, ΔramRΔompK35/36 mutant): 128 µg/mL (≈ 302 µM) | MIC ([1]; ΔramRΔ36, ΔramRΔompK36 mutant): > 256 µg/mL | MIC ([2]; IMP-8 on pACYC177, WT (NVT1001), read-out: MIC): > 256 µg/mL | MIC ([2]; IMP-8 on pACYC177, Δ35 (ΔompK35 mutant)): > 256 µg/mL | MIC ([2]; IMP-8 on pACYC177, Δ35/36 (ΔompK35/36 mutant)): > 256 µg/mL | MIC ([2]; IMP-8 on pACYC177, Δ36 (ΔompK36 mutant)): > 256 µg/mL | MIC ([2]; IMP-8 on pACYC177, ΔramR mutant): > 256 µg/mL | MIC ([2]; IMP-8 on pACYC177, ΔramRΔ35 (ΔramRΔompK35 mutant)): > 256 µg/mL | MIC ([2]; IMP-8 on pACYC177, ΔramRΔ35/36 (ΔramRΔompK35/36 mutant)): > 256 µg/mL | MIC ([2]; IMP-8 on pACYC177, ΔramRΔ36 (ΔramRΔompK36 mutant)): > 256 µg/mL | MIC ([2]; KPC-2 on pACYC177, WT (NVT1001), read-out: MIC): > 256 µg/mL | MIC ([2]; KPC-2 on pACYC177, Δ35 (ΔompK35 mutant)): > 256 µg/mL | MIC ([2]; KPC-2 on pACYC177, Δ35/36 (ΔompK35/36 mutant)): > 256 µg/mL | MIC ([2]; KPC-2 on pACYC177, Δ36 (ΔompK36 mutant)): > 256 µg/mL | MIC ([2]; KPC-2 on pACYC177, ΔramR mutant): > 256 µg/mL | MIC ([2]; KPC-2 on pACYC177, ΔramRΔ35 (ΔramRΔompK35 mutant)): > 256 µg/mL | MIC ([2]; KPC-2 on pACYC177, ΔramRΔ35/36 (ΔramRΔompK35/36 mutant)): > 256 µg/mL | MIC ([2]; KPC-2 on pACYC177, ΔramRΔ36 (ΔramRΔompK36 mutant)): > 256 µg/mL | MIC ([2]; KPC-3 on pACYC177, WT (NVT1001), read-out: MIC): > 256 µg/mL | MIC ([2]; KPC-3 on pACYC177, Δ35 (ΔompK35 mutant)): > 256 µg/mL | MIC ([2]; KPC-3 on pACYC177, Δ35/36 (ΔompK35/36 mutant)): > 256 µg/mL | MIC ([2]; KPC-3 on pACYC177, Δ36 (ΔompK36 mutant)): > 256 µg/mL | MIC ([2]; KPC-3 on pACYC177, ΔramR mutant): > 256 µg/mL | MIC ([2]; KPC-3 on pACYC177, ΔramRΔ35 (ΔramRΔompK35 mutant)): > 256 µg/mL | MIC ([2]; KPC-3 on pACYC177, ΔramRΔ35/36 (ΔramRΔompK35/36 mutant)): > 256 µg/mL | MIC ([2]; KPC-3 on pACYC177, ΔramRΔ36 (ΔramRΔompK36 mutant)): > 256 µg/mL | MIC ([2]; NDM-1 on pACYC177, WT (NVT1001), read-out: MIC): > 256 µg/mL | MIC ([2]; NDM-1 on pACYC177, Δ35 (ΔompK35 mutant)): > 256 µg/mL | MIC ([2]; NDM-1 on pACYC177, Δ35/36 (ΔompK35/36 mutant)): > 256 µg/mL | MIC ([2]; NDM-1 on pACYC177, Δ36 (ΔompK36 mutant)): > 256 µg/mL | MIC ([2]; NDM-1 on pACYC177, ΔramR mutant): > 256 µg/mL | MIC ([2]; NDM-1 on pACYC177, ΔramRΔ35 (ΔramRΔompK35 mutant)): > 256 µg/mL | MIC ([2]; NDM-1 on pACYC177, ΔramRΔ35/36 (ΔramRΔompK35/36 mutant)): > 256 µg/mL | MIC ([2]; NDM-1 on pACYC177, ΔramRΔ36 (ΔramRΔompK36 mutant)): > 256 µg/mL | MIC ([2]; OXA-48 on pACYC177, WT (NVT1001), read-out: MIC): 8 µg/mL | MIC ([2]; OXA-48 on pACYC177, Δ35 (ΔompK35 mutant)): 16 µg/mL | MIC ([2]; OXA-48 on pACYC177, Δ35/36 (ΔompK35/36 mutant)): 128 µg/mL | MIC ([2]; OXA-48 on pACYC177, Δ36 (ΔompK36 mutant)): 32 µg/mL | MIC ([2]; OXA-48 on pACYC177, ΔramR mutant): 64 µg/mL | MIC ([2]; OXA-48 on pACYC177, ΔramRΔ35 (ΔramRΔompK35 mutant)): 64 µg/mL | MIC ([2]; OXA-48 on pACYC177, ΔramRΔ35/36 (ΔramRΔompK35/36 mutant)): > 256 µg/mL | MIC ([2]; OXA-48 on pACYC177, ΔramRΔ36 (ΔramRΔompK36 mutant)): > 256 µg/mL | MIC ([2]; VIM-1 on pACYC177, WT (NVT1001), read-out: MIC): > 256 µg/mL | MIC ([2]; VIM-1 on pACYC177, Δ35 (ΔompK35 mutant)): > 256 µg/mL | MIC ([2]; VIM-1 on pACYC177, Δ35/36 (ΔompK35/36 mutant)): > 256 µg/mL | MIC ([2]; VIM-1 on pACYC177, Δ36 (ΔompK36 mutant)): > 256 µg/mL | MIC ([2]; VIM-1 on pACYC177, ΔramR mutant): > 256 µg/mL | MIC ([2]; VIM-1 on pACYC177, ΔramRΔ35 (ΔramRΔompK35 mutant)): > 256 µg/mL | MIC ([2]; VIM-1 on pACYC177, ΔramRΔ35/36 (ΔramRΔompK35/36 mutant)): > 256 µg/mL | MIC ([2]; VIM-1 on pACYC177, ΔramRΔ36 (ΔramRΔompK36 mutant)): > 256 µg/mL | MIC ([2]; no supplemental plasmid, WT (NVT1001), read-out: MIC): 4 µg/mL | MIC ([2]; no supplemental plasmid, Δ35 (ΔompK35 mutant)): 8 µg/mL | MIC ([2]; no supplemental plasmid, Δ35/36 (ΔompK35/36 mutant)): 32 µg/mL | MIC ([2]; no supplemental plasmid, Δ36 (ΔompK36 mutant)): 16 µg/mL | MIC ([2]; no supplemental plasmid, ΔramR mutant): 32 µg/mL | MIC ([2]; no supplemental plasmid, ΔramRΔ35 (ΔramRΔompK35 mutant)): 64 µg/mL | MIC ([2]; no supplemental plasmid, ΔramRΔ35/36 (ΔramRΔompK35/36 mutant)): 128 µg/mL | MIC ([2]; no supplemental plasmid, ΔramRΔ36 (ΔramRΔompK36 mutant)): > 256 µg/mL | MIC ([3]; ΔramRΔompK35/36::ompK35/36 revertant): 32 µg/mL | MIC ([3]; ΔramRΔompK35/36::ompK35 revertant): > 256 µg/mL | MIC ([3]; ΔramRΔompK35/36::ompK36 revertant): 32 µg/mL | MIC ([3]; ΔramRΔompK35/36::ramR revertant): 32 µg/mL | MIC ([3]; ΔramRΔompK35/36::ramR::ompK35/36 revertant): 4 µg/mL | MIC ([3]; ΔramRΔompK35/36::ramR::ompK35 revertant): 16 µg/mL | MIC ([3]; ΔramRΔompK35/36::ramR::ompK36 revertant): 8 µg/mL | MIC ([3]; ΔramRΔompK35/36 mutant): 128 µg/mL
